Assay [1] deals with His-tagged CRBN-DDB1 complex (Homo sapiens, UniProt Q96SW2). As to the kind of experiment: Time-Resolved Fluorescence Resonance Energy Transfer (TR-FRET / HTRF) CRBN binding assay, displacement of Cy5-labeled thalidomide. Conditions: His-CRBN-DDB1, Cy5-thalidomide 8 nM, 1 hour room temperature. A general note: Time-resolved FRET reads energy transfer from a long-lived donor to a nearby acceptor.

A further assay addresses CRBN-DDB1 (Homo sapiens, UniProt Q96SW2). Kind of assay: Fluorescence Polarization (FP) CRBN binding assay, probe TM-493 (FAM-BB-100). Conditions: CRBN-DDB1, TM-493 probe, 60 min room temperature. The protocol: Fluorescence Polarization (FP) Assay
Materials: PerkinElmer EnVision 2104 Multilabel Reader, PerkinElmer FITC FP dual emission Label 2100-8060, Corning 384-well microplate #4514, V-CMR-TM-493 (FAM-BB-100), and CRBN-DDB1-180605.
Methods: Dilution buffer (50 mM HEPES-Na pH 7.5, 100 mM NaCl, 2 mM DTT, and 0.005% Tween-20) and compound DMSO dilutions were prepared. 4× compound working solutions were made with 8% DMSO (4×) and 13.8 μL/well of dilution buffer was placed in a new 96-well plate and 1.2 μL/well of above compound DMSO dilutions were added to the wells. 40 nM (4×) TM-493 in dilution buffer was prepared from a 10 μM DMSO stock and 15 μL per well of the TM-493 working solution was transferred into the compound working solution. 160 nM (2×) CRBN-DDB1 working solution was prepared with Dilution Buffer and 10 μL/well were added into a 384-well plate. 10 μL per well of the TM-493/compound mixture were transferred into the 384-well plate. The “positive control” was sample without protein and compound in 2% DMSO. After incubation at room temperature for 60 min, data was collected and read on data on an EnVision with the following setting: Excitation Light (%): 100; Measurement Height: 9.4; G-Factor: 1; Detector Gain 1: 200; Detector Gain 2: 200; Flash Number: 100. Data was processed using GraphPad Prism 7.0
The compound numbers correspond to the compound numbers in Table 1.

Where only a bound is given, the exact number is not on record here.

CRBN-DDB1, sequence (Q96SW2 whole entry): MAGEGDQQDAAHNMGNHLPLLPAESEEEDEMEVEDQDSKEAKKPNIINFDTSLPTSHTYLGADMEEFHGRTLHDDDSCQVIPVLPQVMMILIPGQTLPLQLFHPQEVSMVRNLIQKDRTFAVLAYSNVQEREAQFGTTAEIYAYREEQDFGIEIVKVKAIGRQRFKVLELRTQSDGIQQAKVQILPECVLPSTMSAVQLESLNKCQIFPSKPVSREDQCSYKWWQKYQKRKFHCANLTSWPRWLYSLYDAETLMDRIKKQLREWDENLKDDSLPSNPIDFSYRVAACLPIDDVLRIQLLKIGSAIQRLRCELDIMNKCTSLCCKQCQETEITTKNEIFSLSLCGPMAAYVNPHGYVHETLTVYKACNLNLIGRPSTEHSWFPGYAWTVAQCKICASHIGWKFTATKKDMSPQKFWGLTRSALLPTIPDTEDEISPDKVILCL
CRBN-DDB1, sequence (Q16531 whole entry partner): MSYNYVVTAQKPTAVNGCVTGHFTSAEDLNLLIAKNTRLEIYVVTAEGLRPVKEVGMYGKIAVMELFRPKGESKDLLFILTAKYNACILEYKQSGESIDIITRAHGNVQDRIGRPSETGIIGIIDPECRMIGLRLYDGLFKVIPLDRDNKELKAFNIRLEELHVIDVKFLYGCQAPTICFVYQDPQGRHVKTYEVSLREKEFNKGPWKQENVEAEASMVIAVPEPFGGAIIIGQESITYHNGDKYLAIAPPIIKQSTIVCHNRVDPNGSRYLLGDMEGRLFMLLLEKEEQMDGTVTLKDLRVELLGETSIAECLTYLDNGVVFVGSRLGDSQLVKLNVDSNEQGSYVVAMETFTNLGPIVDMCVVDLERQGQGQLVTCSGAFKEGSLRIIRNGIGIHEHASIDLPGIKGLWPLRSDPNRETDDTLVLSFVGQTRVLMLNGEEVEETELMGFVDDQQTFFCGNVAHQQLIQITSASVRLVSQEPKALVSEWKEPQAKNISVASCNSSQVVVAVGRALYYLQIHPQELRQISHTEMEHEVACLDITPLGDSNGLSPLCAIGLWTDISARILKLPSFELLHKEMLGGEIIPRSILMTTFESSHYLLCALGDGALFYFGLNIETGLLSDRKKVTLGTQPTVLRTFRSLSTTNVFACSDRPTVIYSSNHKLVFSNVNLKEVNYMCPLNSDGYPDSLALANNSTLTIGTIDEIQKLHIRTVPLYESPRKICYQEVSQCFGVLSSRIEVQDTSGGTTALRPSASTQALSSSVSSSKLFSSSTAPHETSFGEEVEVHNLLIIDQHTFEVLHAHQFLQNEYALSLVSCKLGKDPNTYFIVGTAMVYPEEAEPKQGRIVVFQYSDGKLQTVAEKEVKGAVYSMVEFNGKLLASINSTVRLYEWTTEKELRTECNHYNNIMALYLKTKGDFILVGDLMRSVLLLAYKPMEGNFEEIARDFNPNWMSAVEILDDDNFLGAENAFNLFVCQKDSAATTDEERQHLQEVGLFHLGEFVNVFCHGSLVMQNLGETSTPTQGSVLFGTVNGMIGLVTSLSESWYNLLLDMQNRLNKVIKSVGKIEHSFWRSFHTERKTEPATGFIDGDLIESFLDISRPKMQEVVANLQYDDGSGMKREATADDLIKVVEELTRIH
His-tagged CRBN-DDB1 complex, sequence (Q96SW2 whole entry): as the sequence (Q96SW2 whole entry) above
His-tagged CRBN-DDB1 complex, sequence (Q16531 whole entry partner): as the sequence (Q16531 whole entry partner) above

A word on the IC50: it is the point on the concentration scale where inhibition reaches its midpoint. Higher therefore signals lower potency. Consider `O=C1Cc2cnn(Cc3ccccc3)c2C(=O)N1` [Compound I-257], for which the IC50 (in assay [1]; on CRBN-DDB1) was above 100 µM each time. `CCOC(=O)c1cccc(N2C[C@@H]3C(=O)NC(=O)[C@@H]3C2)c1` [Compound I-133]: the 50% inhibitory concentration (IC50) is 10 to 30 µM in assay [1] and above 100 µM at CRBN-DDB1. Turning to `O=C1Cc2cncc(Oc3ccccc3)c2C(=O)N1` [Compound I-235], the IC50 in assay [1] was below 10 µM; on CRBN-DDB1, 10 to 30 µM. Taken in the same sequence, the figures for `O=C1NC(=O)C(F)(F)c2cccc(C(=O)N3CCc4ccccc43)c21` [Compound I-50] were above 100 µM and above 100 µM. Taken in the same sequence, the figures for `CC(=O)NCc1cccc(Oc2cccc3c2C(=O)NC(=O)C3=O)c1` [Compound I-267] were 10 to 30 µM and below 10 µM.

Regarding `O=C1Cc2cccc(Br)c2C(=O)N1` [Compound I-8, 8-Bromo-2,4-dihydroisoquinoline-1,3-dione], the figures for the IC50 (in assay [1]; at CRBN-DDB1) were 10 to 30 µM and above 100 µM, respectively. Regarding `O=C1NC(=O)c2c(Oc3cccnc3)cccc2C1=O` [Compound I-266], the IC50 was 10 to 30 µM in assay [1] and below 10 µM at CRBN-DDB1.

In the case of `CC(C)(C)OC(=O)NCCCCCC#Cc1ccc(Oc2cccc3c2C(=O)NC(=O)C3)cc1` [Compound I-230], the half-inhibitory concentration (IC50) (in assay [1]; at CRBN-DDB1) was above 100 µM each time.

`Cc1cccc(Oc2cccc3c2C(=O)NC(=O)C3)c1` [Compound I-199, 8-(3-Methylphenoxy)-2,4-dihydroisoquinoline-1,3-dione]: the IC50 in assay [1] is below 10 µM; on CRBN-DDB1 it was 10 to 30 µM. Taken in the same sequence, the figures for `CC(C)(C)OC(=O)NCCCC#Cc1cccc(Oc2cccc3c2C(=O)NC(=O)C3)c1` [Compound I-221] were below 10 µM and above 100 µM. On to `NCCCCCc1ccc(Oc2cccc3c2C(=O)NC(=O)C3)cc1` [Compound I-249], for which the concentration for half-maximal inhibition (IC50) (in assay [1]; at CRBN-DDB1) was 10 to 30 µM each time. `CC(C)(C)OC(=O)NCCCCCCCCCc1ccccc1Oc1cccc2c1C(=O)NC(=O)C2` [Compound I-218]: the IC50 (in assay [1]; on CRBN-DDB1) was above 100 µM throughout. As to `O=C1Cc2cccc(F)c2C(=O)N1` [Compound I-75, 8-Fluoro-2,4-dihydroisoquinoline-1,3-dione], the concentration for half-maximal inhibition (IC50) lay in the range of 10 to 30 µM in assay [1] and 30 to 100 µM on CRBN-DDB1.

With `O=C1Cc2ccc(F)cc2C(=O)N1` [Compound I-74, 7-Fluoro-2,4-dihydroisoquinoline-1,3-dione], the 50% inhibitory concentration (IC50) (in assay [1]; at CRBN-DDB1) was 30 to 100 µM in each case. Turning to `CC(C)(C)OC(=O)NCCCCCC#Cc1cccc(Oc2cccc3c2C(=O)NC(=O)C3=O)c1` [Compound I-234], the IC50 (in assay [1]; at CRBN-DDB1) was below 10 µM each time.

Take `O=C1Cc2cccc(C(=O)N3CCc4ccccc43)c2C(=O)N1` [Compound I-1, 8-(2,3-Dihydroindole-1-carbonyl)-2,4-dihydroisoquinoline-1,3-dione]: the IC50 in assay [1] was above 100 µM; on CRBN-DDB1, 10 to 30 µM. The like results for `O=C1Cc2cccc(Cc3ccccc3)c2C(=O)N1` [Compound I-258] were, in that order, above 100 µM and 30 to 100 µM. On to `Nc1ccc2c(c1)CC(=O)NC2=O` [Compound I-77], for which the half-maximal inhibitory concentration (IC50) (in assay [1]; on CRBN-DDB1) was 10 to 30 µM in each case.

For `NC(=O)c1ccc2c(c1)C(=O)NC(=O)C2` [Compound I-20, 1,3-dioxo-2,4-dihydroisoquinoline-7-carboxamide], the results for the IC50 (in assay [1]; on CRBN-DDB1) were 30 to 100 µM and above 100 µM, respectively. Taken in the same sequence, the figures for `O=C1NC(=O)c2c(Br)cccc21` [Compound I-29, 4-bromo-2H-isoindole-1,3-dione] were above 100 µM and above 100 µM.

Take `O=C1Cc2cccc(Oc3ccccc3Cl)c2C(=O)N1` [Compound I-202, 8-(2-Chlorophenoxy)-2,4-dihydroisoquinoline-1,3-dione]: the IC50 (in assay [1]; at CRBN-DDB1) was below 10 µM in each case. In the case of `CC(C)(C)OC(=O)NCCCCCCCC#Cc1ccccc1Oc1cccc2c1C(=O)NC(=O)C2=O` [Compound I-243], the half-inhibitory concentration (IC50) in assay [1] is below 10 µM; on CRBN-DDB1, 30 to 100 µM. The like results for `CC(C)(C)OC(=O)NCCCCCCCc1cccc(Oc2cccc3c2C(=O)NC(=O)C3)c1` [Compound I-224] were, in that order, below 10 µM and above 100 µM. As for `O=C1Cc2cccc(Oc3ccccn3)c2C(=O)N1` [Compound I-259], the results for the concentration for half-maximal inhibition (IC50) (in assay [1]; at CRBN-DDB1) were above 100 µM and 10 to 30 µM, respectively. Taken in the same sequence, the figures for `CC(C)(C)OC(=O)NCCCCCC#Cc1cccc(Oc2cccc3c2C(=O)NC(=O)C3)c1` [Compound I-223] were 30 to 100 µM and 30 to 100 µM.

On to `Nc1cccc2c1C(=O)NC(=O)C2(F)F` [Compound I-71, 8-Amino-4,4-difluoro-2H-isoquinoline-1,3-dione], for which the IC50 (in assay [1]; at CRBN-DDB1) was below 10 µM in each case. In the case of `Cc1ccccc1-c1ccc2c(c1)C(=O)NC(=O)C2` [Compound I-4, 7-(2-Methylphenyl)-2,4-dihydroisoquinoline-1,3-dione], the concentration for half-maximal inhibition (IC50) is 30 to 100 µM in assay [1] and above 100 µM at CRBN-DDB1. For the molecule `O=C1CC2(CCc3ccccc32)C(=O)N1` (centres unmarked) [Compound I-185], the IC50 (in assay [1]; on CRBN-DDB1) was above 100 µM each time.

Consider `CC(C)(C)OC(=O)NCCCCCCCC#Cc1cccc(Oc2cccc3c2C(=O)NC(=O)C3=O)c1` [Compound I-237], for which the results for the IC50 (in assay [1]; on CRBN-DDB1) were below 10 µM and 10 to 30 µM, respectively.

Regarding `CC(C)(C)OC(=O)NCCCC#Cc1ccc(Oc2cccc3c2C(=O)NC(=O)C3)cc1` [Compound I-228], the IC50 (in assay [1]; on CRBN-DDB1) was above 100 µM each time. Take `O=C1Cc2ccnc(Oc3ccccc3)c2C(=O)N1` [Compound I-276]: the half-inhibitory concentration (IC50) (in assay [1]; at CRBN-DDB1) was 30 to 100 µM each time. On to `Nc1ccccc1-c1ccc2c(c1)C(=O)NC(=O)C2` [Compound I-17, 7-(2-aminophenyl)-2,4-dihydroisoquinoline-1,3-dione], for which the IC50 in assay [1] is above 100 µM; on CRBN-DDB1, 30 to 100 µM. Take `O=c1[nH]c(=O)c2c(Br)cccc2o1` [Compound I-54, 5-Bromo-3H-1,3-benzoxazine-2,4-dione]: the IC50 (in assay [1]; on CRBN-DDB1) was above 100 µM each time.

Turning to `NCCCC#Cc1ccc(Oc2cccc3c2C(=O)NC(=O)C3=O)cc1` [Compound I-264], the half-maximal inhibitory concentration (IC50) was below 10 µM in assay [1] and 10 to 30 µM on CRBN-DDB1. With `O=C1Cc2cccc(Oc3cccc4ccncc34)c2C(=O)N1` [Compound I-274], the IC50 (in assay [1]; on CRBN-DDB1) was 30 to 100 µM in each case. As for `O=C1Cc2cccc(CNc3ccccc3)c2C(=O)N1` [Compound I-278], the IC50 (in assay [1]; on CRBN-DDB1) was 10 to 30 µM in each case.

`O=C1Cc2cccc(NC(=O)c3ccccc3)c2C(=O)N1` [Compound I-62]: the 50% inhibitory concentration (IC50) is below 10 µM in assay [1] and 30 to 100 µM at CRBN-DDB1.

Take `CC(C)(C)OC(=O)NCCCCCCCC#Cc1ccc(Oc2cccc3c2C(=O)NC(=O)C3=O)cc1` [Compound I-240]: the figures for the 50% inhibitory concentration (IC50) (in assay [1]; at CRBN-DDB1) were below 10 µM and 10 to 30 µM, respectively.

As to `CC(C)(C)OC(=O)NCc1cccc(Oc2cccc3c2C(=O)NC(=O)C3)c1` [Compound I-273], the IC50 (in assay [1]; on CRBN-DDB1) was 10 to 30 µM throughout.

Take `NCC#Cc1cccc(Oc2cccc3c2C(=O)NC(=O)C3)c1` [Compound I-244]: the half-inhibitory concentration (IC50) in assay [1] was 10 to 30 µM; on CRBN-DDB1 it was 30 to 100 µM.

Regarding `NCCCCCCCC#Cc1cccc(Oc2cccc3c2C(=O)NC(=O)C3)c1` [Compound I-248], the IC50 in assay [1] is above 100 µM; at CRBN-DDB1, 30 to 100 µM.

`Cc1ccccc1Oc1cccc2c1C(=O)NC(=O)C2=O` [Compound I-253]: the results for the half-maximal inhibitory concentration (IC50) (in assay [1]; at CRBN-DDB1) were 10 to 30 µM and below 10 µM, respectively. Taken in the same sequence, the figures for `O=C1Cc2cccc(Oc3cccc(F)c3)c2C(=O)N1` [Compound I-198, 8-(3-Fluorophenoxy)-2,4-dihydroisoquinoline-1,3-dione] were below 10 µM and 10 to 30 µM. For `O=C1Cc2cccc(C(=O)N(Cc3ccccc3)Cc3ccccc3)c2C(=O)N1` [Compound I-208], the half-maximal inhibitory concentration (IC50) at CRBN-DDB1 is 10 to 30 µM. The molecule `O=C1CC2(C(=O)N1)C(=O)Nc1ccccc12` (centres unmarked) [Compound I-176] returned an IC50 at CRBN-DDB1 above 100 µM.

As to `O=C1Cc2cccc(Oc3ccccc3Br)c2C(=O)N1` [Compound I-205], the IC50 on CRBN-DDB1 was below 10 µM. In the case of `O=C1Cc2cccc(Oc3cccnc3)c2C(=O)N1` [Compound I-271], on CRBN-DDB1, the IC50 fell in the range of 10 to 30 µM. Take `Cc1ccccc1-c1cccc2c1C(=O)NC(=O)C2` [Compound I-24]: the IC50 at CRBN-DDB1 fell in the range of 10 to 30 µM. Molecule `O=C1Cc2cccc(Oc3cccc(Br)c3)c2C(=O)N1` [Compound I-207] showed an IC50 on CRBN-DDB1 below 10 µM.

The molecule `Cc1ncoc1-c1cccc2c1C(=O)NC(=O)C2` [Compound I-25] returned an IC50 at CRBN-DDB1 above 100 µM.

For the molecule `O=C1Cc2cccc(Oc3ccccc3[N+](=O)[O-])c2C(=O)N1` [Compound I-261], on CRBN-DDB1, the half-inhibitory concentration (IC50) is 10 to 30 µM. Same read-out and setting: the same measure for `O=C1Cc2cccc(Oc3ccc(Br)cc3)c2C(=O)N1` [Compound I-206, 8-(4-Bromophenoxy)-2,4-dihydroisoquinoline-1,3-dione]: below 10 µM.
